Data published in patent US5523305A, “Tachykinin receptor antagonists, isoquinolones and their production” (Takeda Chemical Industries, Ltd., priority 1992, dated 1996).

These compounds were tested against T1, substance P receptor from human lymphoblast cells (IM-9) (Homo sapiens, UniProt P25103) (assay: Radioligand receptor binding inhibitory assay using receptor from human lymphoblast cells (IM-9) (125I-BHSP)). Details: human lymphoblast IM-9 cell receptor, 25° C., 30 minutes, pH 7.4.
T1 construct: The receptor was prepared from human lymphoblast cells (IM-9); endogenous in cells; host or cells: IM-9 human lymphoblast cells
T1 sequence (P25103 whole entry): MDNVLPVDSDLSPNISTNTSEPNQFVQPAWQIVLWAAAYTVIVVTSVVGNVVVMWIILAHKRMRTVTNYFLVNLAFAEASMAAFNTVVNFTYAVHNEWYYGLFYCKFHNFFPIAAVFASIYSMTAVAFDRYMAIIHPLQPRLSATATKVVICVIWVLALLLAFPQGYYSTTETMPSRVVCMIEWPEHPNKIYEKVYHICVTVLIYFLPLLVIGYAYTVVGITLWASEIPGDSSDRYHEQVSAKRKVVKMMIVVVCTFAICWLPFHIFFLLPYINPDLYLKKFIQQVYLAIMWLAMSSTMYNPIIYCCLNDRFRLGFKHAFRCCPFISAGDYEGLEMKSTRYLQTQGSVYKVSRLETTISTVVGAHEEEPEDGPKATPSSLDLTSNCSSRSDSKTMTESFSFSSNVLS
Method: (2) Radioligand receptor binding inhibitory assay using receptor from human lymphoblast cells (IM-9)
The method of A. Margaret et al. [Molecular Pharmacology 42, 458 (1992)] was modified and used. The receptor was prepared from human lymphoblast cells (IM-9). IM-9 cells were grown in 175 cm^2 tissue culture flasks (100 ml×10) at a density approximately 2×10^5 /ml of RPMI 1640 with L-glutamine, 10% (V/V) heat inactivated fetal calf serum, penicillin (100 u/ml), and streptomycin (100 μg/ml) at 37° C. in 5%CO2 /95% air for 3 days. IM-9 cells were obtained by centrifugation at 500×g for 5 minutes at 5° C. The pellet obtained was washed once with phosphate buffer (Flow Laboratories, CAT. No. 28-103-05), homogenized using Polytron homogenizer(Kinematika, Germany) in 30 ml of 50 mM Tris-HCl buffer containing 120 mM NaCl, 5 mM KCl, 2 μg/ml phenylmethyl sufonyl fluoride, and 1 mM ethylenediamine tetra-acetic acid, and then centrifuged at 40,000×g for 20 minutes. The residue was washed twice with 30 ml of buffer described above, and preserved frozen (-80° C.).
The above specimen was suspended in a reaction buffer (50 mM Tris-HCl buffer (pH 7.4), 0.02% bovine serum albumin, 1 mM phenylmethylsulfonyl fluoride, 2 μg/ml chymostatin, 40 μg/ml bacitracin, 3 mM manganese chloride) at a protein concentration of 1.5 mg/ml and a 100 μl portion of the suspension was used in the reaction. After addition of the sample and 125I-BHSP (0.46 KBq), the reaction was conducted in 0.2 ml of reaction buffer at 25° C. for 30 minutes. The amount of nonspecific binding was determined by adding substance P at a final concentration of 2×10^-6 M. After the reaction, using a cell harvester (290PHD, Cambridge Technology, Inc., England), rapid filtration was carried out through a glass filter (GF/B, Whatman, U.S.A.) to stop the reaction. After washing three times with 250 μl of […] buffer (pH 7.4) containing 0.02% bovine serum albumin, the radioactivity remaining on the filter was measured with a gamma counter. Before use, the filter was immersed in 0.1% polyethyleneimine for 24 hours and air-dried.

**Q.** For `Cc1cc2c(-c3ccccc3)c(NC(=O)NCc3ccccc3Cl)n(C)c(=O)c2cc1C` [Example 42, N-(2-Chlorobenzyl)-N'-(1,2-dihydro-2,6,7-trimethyl-1-oxo-4-phenylisoquinolin-3-yl)urea], which IC50 is on record?
**A.** 76 nM

Same assay, conditions: read-out: concentration necessary to cause 50% inhibition [IC50], human lymphoblast IM-9 cell receptor, 25° C., 30 minutes, pH 7.4

**Q.** Which IC50 does the source give for `Cc1cc2c(-c3ccccc3)c(NC(=O)N(C)Cc3ccccc3)n(C)c(=O)c2cc1C` [Example 1, N-Benzyl-N'-(1,2-dihydro-2,6,7-trimethyl-1-oxo-4-phenylisoquinolin-3-yl)-N-methylurea] here?
**A.** 16 nM

**Q.** With `COc1ccccc1CN(C)C(=O)Nc1c(-c2ccccc2)c2cc(C)c(C)cc2c(=O)n1C` [Example 3, N-(1,2-Dihydro-2,6,7-trimethyl-1-oxo-4-phenylisoquinolin-3-yl)-N'-(2-methoxybenzyl)-N'-methylurea] as the compound, how does the IC50 read?
**A.** 23 nM

**Q.** `Cc1cc2c(-c3ccccc3)c(NC(=O)N(C)Cc3ccccc3Cl)n(C)c(=O)c2cc1C` [Example 52] was tested. Which IC50 did it give?
**A.** 4.2 nM

**Q.** `CCN(Cc1ccccc1)C(=O)Nc1c(-c2ccccc2)c2cc(C)c(C)cc2c(=O)n1C` [Example 53, N-Benzyl-N-ethyl-N'-(1,2-dihydro-2,6,7-trimethyl-1-oxo-4-phenylisoquinolin-3-yl)urea] was tested. Which IC50 did it give?
**A.** 66 nM

The compounds below were run against T2, substance P receptor from rat forebrain (Rattus norvegicus, UniProt P14600) (assay: Radioligand receptor binding inhibitory assay using receptor from rat forebrain (125I-BHSP)). Details: 25° C., 30 minutes, pH 7.4.
T2 construct: The receptor was prepared from the brain of Wistar rats (male, 8 weeks old, Charles-River); from tissue; host or cells: forebrain membranes of male Wistar rats
T2 sequence (P14600 whole entry): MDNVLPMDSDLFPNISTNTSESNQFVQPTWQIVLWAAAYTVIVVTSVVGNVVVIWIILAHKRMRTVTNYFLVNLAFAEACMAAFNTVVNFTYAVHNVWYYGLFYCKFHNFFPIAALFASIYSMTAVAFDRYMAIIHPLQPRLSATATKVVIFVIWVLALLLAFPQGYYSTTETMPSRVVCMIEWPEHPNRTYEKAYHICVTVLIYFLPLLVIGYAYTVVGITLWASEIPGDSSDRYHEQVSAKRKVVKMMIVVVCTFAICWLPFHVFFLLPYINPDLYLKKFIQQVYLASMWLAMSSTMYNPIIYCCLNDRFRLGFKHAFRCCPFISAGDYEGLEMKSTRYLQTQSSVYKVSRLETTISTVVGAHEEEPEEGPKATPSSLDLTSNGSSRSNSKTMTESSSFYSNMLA
Design: species or system rat (Wistar)
Method: (1) Radioligand receptor binding inhibitory assay using receptor from rat forebrain The method of R. Qirion and […] (Neuropeptide 4, 325 (1984)) was modified and used. The receptor was prepared from the brain of Wistar rats (male, 8 weeks old, Charles-River). The rat was sacrificed by decapitation and the forebrain was isolated. The forebrain was homogenized in 30 ml/rat of 150 mM Tris-HCl buffer (pH 7.4) containing 120 mM sodium chloride and 5 mM potassium chloride using a Polytron homogenizer (Kinematika, Germany) and centrifuged at 40,000×G for 20 minutes. The pellet was suspended in 30 ml of 50 mM Tris-HCl buffer (pH 7.4) containing 300 mM potassium chloride and 10 mM ethylenediaminetetracetic acid and stirred gently with ice-cooling for 30 minutes. This suspension was centrifuged at 40,000×G for 20 minutes and the pellet was washed with 30 ml of 50 mM Tris-HCl buffer (pH 7.4). The receptor specimen thus obtained was preserved frozen (-80° C.). The above specimen was suspended in a reaction buffer (50 mM Tris-HCl buffer (pH 7.4), 0.02% bovine serum albumin, 1 mM phenylmethylsulfonyl fluoride, 2 μg/ml chymostatin, 40 μg/ml bacitracin, 3 mM manganese chloride) at a protein concentration of 1.5 mg/ml and a 100 μl portion of the suspension was used in the reaction. […] The amount of nonspecific binding was determined by adding substance P at a final concentration of 2×10^-6 M. After the reaction, using a cell harvester (290PHD, Cambridge Technology, Inc., England), rapid filtration was carried out through a glass filter (GF/B, Whatman, U.S.A.) to stop the reaction. After washings three times with 250 μl of 50 mM Tris-HCl buffer (pH 7.4) containing 0.02% bovine serum albumin, the radioactivity remaining on the filter was measured with a gamma counter. Before use, the filter was immersed in 0.1% polyethyleneimine for 24 hours and air-dried.

**Q.** Which IC50 does the source give for `Cc1cc2c(-c3ccccc3)c(NC(=O)NCc3ccccc3)n(C)c(=O)c2cc1C` [Example 2, N-Benzyl-N'-(1,2-dihydro-2,6,7-trimethyl-1-oxo-4-phenylisoquinolin-3-yl)ure] here?
**A.** 19 nM

**Q.** `Cc1cc2c(-c3ccccc3)c(NC(=O)NCc3ccco3)n(C)c(=O)c2cc1C` [Example 12, N-(2-Furfuryl)-N'-(1,2-dihydro-2,6,7-trimethyl-1-oxo-4-phenylisoquinolin-3-yl)urea] was tested. Which IC50 did it give?
**A.** 64 nM

**Q.** How did the IC50 turn out when `Cc1cc2c(-c3ccccc3)c(NC(=O)NCc3ccccn3)n(C)c(=O)c2cc1C` [Example 13, N-(1,2-Dihydro-2,6,7-trimethyl-1-oxo-4-phenylisoquinolin-3-yl)-N'-(2-pyridinemethyl)urea] was run?
**A.** 42 nM

**Q.** For `Cc1cc2c(-c3ccccc3)c(NC(=O)NCc3cccs3)n(C)c(=O)c2cc1C` [Example 14, N-(1,2-Dihydro-2,6,7-trimethyl-1-oxo-4-Phenylisoquinolin-3-yl)-N'-(2-thiophenemethyl)urea], which IC50 is on record?
**A.** 56 nM

**Q.** How did the IC50 turn out when `Cc1cc2c(-c3ccccc3)c(NC(=O)NCC3CCCCC3)n(C)c(=O)c2cc1C` [Example 15, N-Cyclohexylmethyl-N'-(1,2-dihydro-2,6,7-trimethyl-1-oxo-4-phenylisoquinolin-3-yl)urea] was run?
**A.** 76 nM

**Q.** With `Cc1ccc(CNC(=O)Nc2c(-c3ccccc3)c3cc(C)c(C)cc3c(=O)n2C)cc1` [Example 16, N-(1,2-Dihydro-2,6,7-trimethyl-1-oxo-4-phenylisoquinolin-3-yl)-N'-(4-methylbenzyl)urea] as the compound, how does the IC50 read?
**A.** 11 nM

**Q.** How did the IC50 turn out when `Cc1cc2c(-c3ccccc3)c(NC(=O)NCc3ccccc3C)n(C)c(=O)c2cc1C` [Example 18, N-(1,2-Dihydro-2,6,7-trimethyl-1-oxo-4-phenylisoquinolin-3-yl)-N'-(2-methylbenzyl)urea] was run?
**A.** 14 nM

**Q.** How did the IC50 turn out when `CCn1c(NC(=O)NCc2ccccc2)c(-c2ccccc2)c2cc(C)c(C)cc2c1=O` [Example 19, N-Benzyl-N'-(2-ethyl-1,2-dihydro-6,7-dimethyl-1-oxo-4-phenylisoquinolin-3-yl)urea] was run?
**A.** 32 nM

**Q.** For `COc1ccccc1-c1c(NC(=O)NCc2ccccc2)n(C)c(=O)c2ccccc12` [Example 24, N-Benzyl-N'-[1,2-dihydro-4-(2-methoxyphenyl)-2-methyl-1-oxoisoquinolin-3-yl]urea], which IC50 is on record?
**A.** 100 nM

Same assay, conditions: read-out: concentration necessary to cause 50% inhibition [IC50], 25° C., 30 minutes, pH 7.4

**Q.** Which IC50 does the source give for `Cc1cccc(CNC(=O)Nc2c(-c3ccccc3)c3cc(C)c(C)cc3c(=O)n2C)c1` [Example 17, N-(1,2-Dihydro-2,6,7-trimethyl-1-oxo-4-phenylisoquinolin-3-yl)-N'-(3-methylbenzyl)urea] here?
**A.** 18 nM
